Here are results for 1 compound from patent US20220031684A1, “PROPHYLACTIC EFFICACY OF SEROTONIN 4 RECEPTOR AGONISTS AGAINST STRESS” (THE TRUSTEES OF COLUMBIA UNIVERSITY IN THE CITY OF NEW YORK, priority 2019, published 2022).

Test [1] in a line: Chronic corticosterone (CORT) model: body weight. The settings on record: male C57BL/6NTac; Flx 18 mg/kg/day in drinking water or RS-67,333 1.5 mg/kg/day in osmotic minipumps for 3 weeks prior to CORT. In kind it is in vivo, mice. The protocol:
(§1) This chronic CORT elevation dysregulates the hypothalamic-pituitary-adrenal axis (HPA) in a manner similar to that observed in clinical depression. The dose and duration of CORT treatment was selected based on previous studies. CORT (35 μg/ml, equivalent to about 5 mg/kg/day) dissolved in 0.45% hydroxypropyl-o-cyclodextrin (0-CD) or vehicle (VEH) (0.45% j-CD) was available ad libitum in the drinking water in opaque bottles to protect it from light. VEH- and CORT-treated water was changed every 3 days to prevent possible degradation. Contextual Fear Conditioning (CFC): A 3-shock CFC procedure was administered as previously published. Briefly, mice were placed into context A and administered 3 2-s shocks (0.75 mA) at 180 s, 240 s or 300 s following placement into context A. Mice were removed from the context 15 s following the termination of shock (at 317 s). For context retrieval, mice were placed back into context A for 300 s. Electrophysiology: Electrophysiology was conducted as previously described. Statistical Analysis: Results from data analyses are expressed as means±SEM. Alpha was set to 0.05 for all analyses. Data were analyzed using GraphPad Prism v7.0 or v8.0. For all experiments, unless otherwise noted, one- or two-way ANOVAs with repeated-measures were applied to the data as appropriate. […] Videos were scored using ANY-maze behavior tracking software (Stoelting, Wood Dale, Ill.). […]

For test [2], the system named is 129S6/SvEv mice. As to the kind of experiment: Open field (OF) after CFC. In kind it is in vivo. The protocol:
as §1, with “appropriate. Significant main effects and/or interactions were followed by Fisher's PLSD post hoc analysis or unpaired t-tests. Drugs: All drugs were prepared in physiological saline and all injections were administered intraperitoneally (i.p.) in volumes of 0.1 cc per […] body weight unless otherwise noted. Fluoxetine hydrochloride (Flx): Flx (BioTrend Chemicals AG, BG197, Zurich, Germany) was administered in the drinking water (18 mg/kg/day) for 3 weeks before the start of CORT. […] (R,S)-ketamine (K): (R,S)-ketamine (Ketaset III, Ketamine HCl injection, Fort Dodge Animal Health, Fort Dodge, Iowa) was administered in a single dose at 30 mg/kg of body weight 1 week before the start of CFC.” for “appropriate.”

For test [3], the system named is 129S6/SvEv mice. As to the kind of experiment: Novelty-suppressed feeding (NSF) after CFC. In kind it is in vivo. The protocol:
This chronic CORT elevation dysregulates the hypothalamic-pituitary-adrenal axis (HPA) in a manner similar to that observed in clinical depression. The dose and duration of CORT treatment was selected based on previous studies. CORT (35 μg/ml, equivalent to about 5 mg/kg/day) dissolved in 0.45% hydroxypropyl-o-cyclodextrin (0-CD) or vehicle (VEH) (0.45% j-CD) was available ad libitum in the drinking water in opaque bottles to protect it from light. VEH- and CORT-treated water was changed every 3 days to prevent possible degradation. Contextual Fear Conditioning (CFC): A 3-shock CFC procedure was administered as previously published. Briefly, mice were placed into context A and administered 3 2-s shocks (0.75 mA) at 180 s, 240 s or 300 s following placement into context A. Mice were removed from the context 15 s following the termination of shock (at 317 s). For context retrieval, mice were placed back into context A for 300 s. Electrophysiology: Electrophysiology was conducted as previously described. Statistical Analysis: Results from data analyses are expressed as means±SEM. Alpha was set to 0.05 for all analyses. Data were analyzed using GraphPad Prism v7.0 or v8.0. For all experiments, unless otherwise noted, one- or two-way ANOVAs with repeated-measures were applied to the data as appropriate. Significant main effects and/or interactions were followed by Fisher's PLSD post hoc analysis or unpaired t-tests. Drugs: All drugs were prepared in physiological saline and all injections were administered intraperitoneally (i.p.) in volumes of 0.1 cc per […] body weight unless otherwise noted. Fluoxetine hydrochloride (Flx): Flx (BioTrend Chemicals AG, BG197, Zurich, Germany) was administered in the drinking water (18 mg/kg/day) for 3 weeks before the start of CORT. […] (R,S)-ketamine (K): (R,S)-ketamine (Ketaset III, Ketamine HCl injection, Fort Dodge Animal Health, Fort Dodge, Iowa) was administered in a single dose at 30 mg/kg of body weight 1 week before the start of CFC. […] PF-04995274: PF-04995274 (Sigma, Catalog No. 1331782-27-4, St. Louis, Mo.) was administered a single dose at 3 or 10 mg/kg of body weight 1 week before the start of CFC. PF-04995274 was dissolved in saline using an ultrasonic homogenizer (BioLogics, Model 3000, Manassas, Va.). Osmotic minipump implantation: ALZET osmotic minipumps (Model 2004, […], 28 days) were implanted subcutaneously under isoflurane anesthesia as previously described [S2]. Osmotic minipumps were rotated under the skin two to three times per week. Behavioral Assays: All experiments were approved by the Institutional Animal Care and Use Committee (IACUC) at the New York Psychiatric Institute (NYSPI). Elevated Plus Maze (EPM): Testing was performed as previously described [S3]. Briefly, the maze is a plus-cross-shaped apparatus consisting of four arms, two open and two enclosed by walls, linked by a central platform at a height of 50 cm from the floor. Mice were individually placed in the center of the maze facing an open arm and were allowed to explore the maze for 5 min. The time spent in and the number of entries into the open arms was used as an anxiety index. Videos were scored using ANY-maze behavior tracking software (Stoelting, Wood Dale, Ill.). Novelty-Suppressed Feeding: The NSF is a conflict test that elicits competing motivations: the drive to eat and the fear of venturing into the center of a brightly lit arena. The latency to feed is used as an index of anxiety-like behavior, because classical anxiolytic drugs decrease this measure. The NSF test was carried out during an 8 min period as previously described [S3]. Briefly, the testing apparatus consisted of a plastic box (50×50×20 cm), the floor of which was covered with approximately 2 cm of bedding. For 129S6/SvEv experiments, mice were food restricted for 12 h. For the C57BL/6N experiments, mice were food restricted for 24 h. […]

Test [4] relates to DRN 5-HT neurons. As to the kind of experiment: In vivo electrophysiological recordings of DRN 5-HT neurons. Further details: species or system mice. Conditions: RS67333 1.5 mg/kg i.p.; after vs before administration. The procedure:
FIGS. 7A-7G. Acute 5-HT4 receptor stimulation induces fast anxiolytic-like effects on 5-HT function through a modulation of the mPFC in an anxious BALB/cJRj mouse strain. (7A) Before the administration of RS67333 (RS, 1.5 mg/kg), different tracks were performed to record 5-HT neurons for 30 min. At the end of this period, RS67333 was administered i.p. and 30 min after, two or three subsequent tracks were realized. (7B) Discharge frequency of DRN 5-HT neurons is assessed as mean firing rate. The number of neurons tested is indicated in each histogram (n=25 and 26 before and after RS injection for a total of n=5 mice). Data are mean±[…] of DRN 5-HT neurons determined before the administration of RS67333. (7C) Typical recordings of DRN 5-HT neurons in the different experimental conditions. Histograms in the upper panels represent the number of action potentials (APs) per 10 seconds (scale bar). […] (7E) Cortical 5-HT depletion by p-CPA pre-treatment is measured as mean 5-HT levels (n=6-8 mice per group). (7F and 7G) Anxiety is measured in the elevated plus maze (EPM) as mean time or percent time spent in the open arms (F and inset), as mean ratio ambulatory distance in open arms/total distance (7G) and as mean total ambulatory distance (inset) (n=8-11 mice per group). […]

Test [5] addresses sigma 2 (Homo sapiens, UniProt Q5BJF2). Conditions: cited from earlier work.
The mark [6] stands for this setting: FIG. 3 cohort, FIG. 3M, Fisher's PLSD.

SMILES strings stand for the structures.

Chain of sigma 2 (Q5BJF2 whole entry): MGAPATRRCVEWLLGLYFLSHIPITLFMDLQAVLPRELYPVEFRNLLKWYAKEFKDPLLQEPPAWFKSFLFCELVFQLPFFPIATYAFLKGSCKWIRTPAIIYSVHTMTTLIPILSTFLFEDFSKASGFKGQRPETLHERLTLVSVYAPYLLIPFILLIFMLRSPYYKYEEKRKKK

With `CCCCN1CCC(CCC(=O)c2cc(Cl)c(N)cc2OC)CC1.Cl` [RS-67,333, 1-(4-amino-5-chloro-2-methoxyphenyl)-3-[1(n-butyl)-4-piperidinyl]-1-propanone HCl], the “CORT-induced increase in body weight” value in test [1] is “attenuated”. In test [2] (FIG. 2I, t-test), the “p, OF Time in Center, Saline vs. RS67333 (10 mg/kg)” value amounted to 0.2475. The “time spent in the center of the OF” value in test [2] (female 129S6/SvEv, 1.5 or 10 mg/kg) was “did not alter”. Moreover, in test [2] (male 129S6/SvEv, 10 mg/kg), the “time in the center of the OF arena vs saline” value was “comparable amount of time”. For the same compound, the “p, NSF Latency of feed, Saline vs. RS67333 (10 mg/kg)” value in test [3] (FIG. 2M, t-test) came to 0.0108. The “p, NSF Food Eaten (g), Saline vs. RS67333 (10 mg/kg)” value in test [3] (FIG. 2N, t-test) is 0.3871. Further, in test [3] (FIG. 2O, t-test), the “p, NSF Body Weight, Saline vs. RS67333 (10 mg/kg)” value turned out to be 0.8829. Moreover, in test [3] (setting [6]), the “p, NSF Latency to feed (sec), RS67333 (1.5 mg/kg) vs. RS67333 (10 mg/kg)” value is 0.0820 and the “p, NSF Latency to feed (sec), Saline vs. RS67333 (10 mg/kg)” value was 0.0010. For the same compound, the “significance (* column), NSF Latency to feed (sec), Saline vs. RS67333 (1.5 mg/kg)” value in test [3] (FIG. 3 cohort, FIG. 3M, Fisher's PLSD, p cell empty) is “ns”. Further, the “latency to feed (NSF)” value in test [3] (female 129S6/SvEv, 10 mg/kg) is given as “significantly reduced latency to feed”. The “latency to approach the pellet (NSF) vs saline” value in test [3] (male 129S6/SvEv, 10 mg/kg) is listed as “significantly reduced latency”. Besides, the “increase of the discharge frequency of DRN 5-HT neurons” value in test [4] came to 63%. Moreover, the “pKi sigma 2” value in test [5] was 8.0.
